Measurements published in patent US20110053907A1, “SUBSTITUTED PYRIMIDINES AND TRIAZINES AND THEIR USE IN CANCER THERAPY” (Auckland UniServices Limited, priority 2008, published 2011).
Where a name gives a salt, the structure may show the parent alone.

Assays:
[1] = molecular target: p110α/p85 (Homo sapiens, UniProt P42336); experiment: Reversible inhibition of isolated enzyme, lipid kinase assay; type: biochemical; conditions: recombinant enzyme, 100 μM ATP, 1 hr, average of two experiments
Method: Compounds were evaluated for their ability to inhibit Class I PI 3-kinase enzymes p110δ/p85, p110α/p85, and p110β/p85. Reaction mixtures comprising 0.1 μg of a recombinant enzyme, 10 μg of L-α-phosphatidylinositol, and 2× Lipid Kinase Buffer (40 mM Tris-HCl, pH 7.4, 200 mM NaCl, 1 mM EDTA), which contains either DMSO only as a control or the test compound in DMSO (the final DMSO concentration is 1%), were activated by the addition of an ATP mix (5 mM MgCl2, 100 μM ATP, and 0.1 μL [γ^33P]ATP). Reactions were incubated at room temperature for 1 hr, and then stopped by the addition of 1M HCl. The lipids were then extracted using a two step procedure. Firstly, 200 μL of chloroform/methanol (1:1) was added, the biphasic reactions mixed and centrifuged briefly, and the inorganic phase was removed and discarded. Following this, 80 μL of methanol:HCl (1:1) was added and the same procedure followed. The organic phase (70 μL) was then transferred to a clean 1.6 mL tube and the reactions were dried using a Speedvac, with no heating, for 30 min. The reactions were spotted onto TLC plates (Merck Ltd) and developed for 1 hr in propanol-1:2 M acetic acid (13:7). The TLC plates were then dried at room temperature and quantified using a phosphorimager (StormImager, Amersham). Nine compound concentrations were used for each test compound to determine its IC50 value. Each experiment was performed twice and the average IC50 value is used herein.

Sequence of p110α/p85 (P42336 whole entry): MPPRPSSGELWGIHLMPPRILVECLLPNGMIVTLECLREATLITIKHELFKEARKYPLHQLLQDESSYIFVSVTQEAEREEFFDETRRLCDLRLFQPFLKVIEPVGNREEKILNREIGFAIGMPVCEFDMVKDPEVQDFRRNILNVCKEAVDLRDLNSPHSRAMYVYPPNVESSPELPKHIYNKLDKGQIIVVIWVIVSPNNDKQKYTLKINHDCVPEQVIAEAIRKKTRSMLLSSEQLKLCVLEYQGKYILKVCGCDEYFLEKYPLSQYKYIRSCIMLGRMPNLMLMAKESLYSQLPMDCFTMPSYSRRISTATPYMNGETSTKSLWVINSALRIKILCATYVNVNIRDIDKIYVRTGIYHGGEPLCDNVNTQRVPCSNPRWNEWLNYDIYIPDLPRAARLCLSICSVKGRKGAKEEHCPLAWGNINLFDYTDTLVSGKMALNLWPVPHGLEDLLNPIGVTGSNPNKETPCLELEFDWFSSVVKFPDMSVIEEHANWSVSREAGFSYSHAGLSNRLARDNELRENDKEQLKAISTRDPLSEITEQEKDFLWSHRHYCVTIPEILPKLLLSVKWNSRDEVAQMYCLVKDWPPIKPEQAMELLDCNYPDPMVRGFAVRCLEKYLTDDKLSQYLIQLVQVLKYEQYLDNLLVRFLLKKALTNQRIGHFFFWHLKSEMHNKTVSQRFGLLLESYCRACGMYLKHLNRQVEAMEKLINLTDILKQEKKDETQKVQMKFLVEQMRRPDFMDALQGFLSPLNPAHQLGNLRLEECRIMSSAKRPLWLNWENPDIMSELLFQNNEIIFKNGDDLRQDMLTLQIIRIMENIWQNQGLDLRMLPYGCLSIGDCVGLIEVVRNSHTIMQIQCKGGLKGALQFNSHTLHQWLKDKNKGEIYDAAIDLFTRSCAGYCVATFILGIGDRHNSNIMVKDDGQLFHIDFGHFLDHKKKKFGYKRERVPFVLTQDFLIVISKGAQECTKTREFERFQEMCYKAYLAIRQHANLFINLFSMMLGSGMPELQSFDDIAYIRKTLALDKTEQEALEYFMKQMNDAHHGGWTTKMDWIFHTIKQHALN
Sequence of p110α/p85 (P27986 whole entry partner): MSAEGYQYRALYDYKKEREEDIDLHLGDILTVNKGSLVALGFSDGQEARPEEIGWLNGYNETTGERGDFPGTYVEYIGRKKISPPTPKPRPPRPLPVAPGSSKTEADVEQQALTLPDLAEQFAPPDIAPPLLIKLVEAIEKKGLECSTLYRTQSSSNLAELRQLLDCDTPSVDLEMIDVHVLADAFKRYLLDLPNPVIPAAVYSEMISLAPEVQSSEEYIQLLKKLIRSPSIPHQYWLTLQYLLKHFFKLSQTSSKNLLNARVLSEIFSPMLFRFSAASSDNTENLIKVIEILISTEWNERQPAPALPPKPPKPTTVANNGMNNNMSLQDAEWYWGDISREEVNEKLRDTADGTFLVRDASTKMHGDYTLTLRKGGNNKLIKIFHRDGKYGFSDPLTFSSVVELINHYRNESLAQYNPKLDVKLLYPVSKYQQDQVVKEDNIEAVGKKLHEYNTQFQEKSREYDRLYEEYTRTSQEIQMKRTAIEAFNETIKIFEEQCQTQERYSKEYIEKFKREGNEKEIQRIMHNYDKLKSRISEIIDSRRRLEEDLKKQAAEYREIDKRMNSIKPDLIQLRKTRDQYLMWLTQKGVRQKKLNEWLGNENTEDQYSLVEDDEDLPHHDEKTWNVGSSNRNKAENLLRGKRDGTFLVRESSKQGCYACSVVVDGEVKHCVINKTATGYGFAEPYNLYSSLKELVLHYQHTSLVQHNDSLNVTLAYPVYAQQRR

Structure (SMILES) | melting point | IC50 [1]
COc1cccc2c1nc(C(F)F)n2-c1nc(-c2ccncc2)nc(N2CCN(C(=O)CCl)CC2)n1 (as salt: hydrochloride) [Example 6, 1-[4-[4-(chloroacetyl)-1-piperazinyl]-6-(4-pyridinyl)-1,3,5-triazin-2-yl]-2-(difluoromethyl)-4-methoxy-1H-benzimidazole] | > 300 °C | –
CN(C)CCCOc1cccc2c1nc(C(F)F)n2-c1nc(N2CCOCC2)nc(N2CCN(S(=O)(=O)CCl)CC2)n1 (as salt: hydrochloride) [Example 13] | 243 to 247 °C | –
CN(C)CCCOc1cccc2c1nc(C(F)F)n2-c1nc(N2CCOCC2)nc(N(C)C2CCN(C(=O)CCl)CC2)n1 (as salt: hydrochloride) [Example 20, N-[1-(chloroacetyl)-4-piperidinyl]-4-{2-(difluoromethyl)-4-[3-(dimethylamino)propoxy]-1H-benzimidazol-1-yl}-N-methyl-6-(4-morpholinyl)-1,3,5-triazin-2-amine] | 128 °C (dec.) | –
O=C(CCl)N1CCN(c2nc(-c3cccc(O)c3)nc(N3CCOCC3)n2)CC1 [Example 1, 3-[4-[4-(chloroacetyl)-1-piperazinyl]-6-(4-morpholinyl)-1,3,5-triazin-2-yl]phenol] | 242 to 245 °C | –
CCOc1cccc2c1nc(C(F)F)n2-c1nc(N2CCOCC2)nc(N2CCN(C(=O)CCl)CC2)n1 [Example 2, 1-[4-[4-(chloroacetyl)-1-piperazinyl]-6-(4-morpholinyl)-1,3,5-triazin-2-yl]-2-(difluoromethyl)-4-ethoxy-1H-benzimidazole] | 217 to 219 °C | –
O=C(CCl)N1CCN(c2nc(N3CCOCC3)nc(-n3c(C(F)F)nc4ccccc43)n2)CC1 [Example 3, 1-[4-[4-(Chloroacetyl)-1-piperazinyl]-6-(4-morpholinyl)-1,3,5-triazin-2-yl]-2-(difluoromethyl)-1H-benzimidazole] | 189 to 191 °C | –
O=C(CCl)N1CCN(c2nc(N3CCOCC3)nc(-n3c(C(F)F)nc4c(O)cccc43)n2)CC1 [Example 5, 1-[4-[4-(Chloroacetyl)-1-piperazinyl]-6-(4-morpholinyl)-1,3,5-triazin-2-yl]-2-(difluoromethyl)-1H-benzimidazol-4-ol] | 267 to 270 °C | –
COc1cccc2c1nc(C(F)F)n2-c1nc(N2CCOCC2)nc(N2CCN(C(=O)C(Cl)Cl)CC2)n1 [Example 7, 1-[4-[4-(dichloroacetyl)-1-piperazinyl]-6-(4-morpholinyl)-1,3,5-triazin-2-yl]-2-(difluoromethyl)-4-methoxy-1H-benzimidazole] | 275 to 278 °C | –
COc1cccc2c1nc(C(F)F)n2-c1nc(N2CCOCC2)nc(N2CCN(C(=O)C(Cl)(Cl)Cl)CC2)n1 [Example 8, 2-(difluoromethyl)-1-{4-(4-morpholinyl)-6-[4-(trichloroacetyl)-1-piperazinyl]-1,3,5-triazin-2-yl}-1H-benzimidazol-4-yl methyl ether] | – | < 100 nM
COc1cccc2c1nc(C(F)F)n2-c1nc(N2CCOCC2)nc(N2CCN(C(=O)COS(C)(=O)=O)CC2)n1 [Example 9, 2-{4-[4-[2-(difluoromethyl)-4-methoxy-1H-benzimidazol-1-yl]-6-(4-morpholinyl)-1,3,5-triazin-2-yl]-1-piperazinyl}-2-oxoethyl methanesulfonate] | 176 to 180 °C | < 100 nM
COc1cccc2c1nc(C(F)F)n2-c1nc(N2CCOCC2)nc(N2CCN(C(=O)C(C)Cl)CC2)n1 (centres unmarked) [Example 10, 1-[4-[4-(2-chloropropanoyl)-1-piperazinyl]-6-(4-morpholinyl)-1,3,5-triazin-2-yl]-2-(difluoromethyl)-4-methoxy-1H-benzimidazole] | – | < 100 nM
COc1cccc2c1nc(C(F)F)n2-c1nc(N2CCOCC2)nc(N2CCN(S(=O)(=O)CCl)CC2)n1 [Example 11, 1-[4-{4-[(chloromethyl)sulfonyl]-1-piperazinyl}-6-(4-morpholinyl)-1,3,5-triazin-2-yl]-2-(difluoromethyl)-4-methoxy-1H-benzimidazole] | 261 to 263 °C | < 100 nM
COc1cccc2c1nc(C(F)F)n2-c1nc(N2CCOCC2)nc(N2CCN(S(=O)(=O)CBr)CC2)n1 [Example 12, 1-[4-{4-[(bromomethyl)sulfonyl]-1-piperazinyl}-6-(4-morpholinyl)-1,3,5-triazin-2-yl]-2-(difluoromethyl)-4-methoxy-1H-benzimidazole] | 259 to 262 °C | < 100 nM
CN(C)CCCOc1cccc2c1nc(C(F)F)n2-c1nc(N2CCOCC2)nc(N2CCN(S(=O)(=O)CCl)CC2)n1 [Example 13] | – | > 1000 nM
COc1cccc2c1nc(C(F)F)n2-c1nc(N2CCOCC2)cc(N2CCN(S(=O)(=O)CCl)CC2)n1 [Example 14, 1-[4-{4-[(chloromethyl)sulfonyl]-1-piperazinyl}-6-(4-morpholinyl)-2-pyrimidinyl]-2-(difluoromethyl)-4-methoxy-1H-benzimidazole] | 229 to 232 °C | < 100 nM
COc1cccc2c1nc(C(F)F)n2-c1cc(N2CCN(S(=O)(=O)CCl)CC2)nc(N2CCOCC2)n1 [Example 15, 1-[6-{4-[(chloromethyl)sulfonyl]-1-piperazinyl}-2-(4-morpholinyl)-4-pyrimidinyl]-2-(difluoromethyl)-4-methoxy-1H-benzimidazole] | 220 to 222 °C | 100 to 1000 nM
COc1cccc2c1nc(C(F)F)n2-c1cc(N2CCOCC2)nc(N2CCN(S(=O)(=O)CCl)CC2)n1 [Example 16, 1-[2-{4-[(chloromethyl)sulfonyl]-1-piperazinyl}-6-(4-morpholinyl)-4-pyrimidinyl]-2-(difluoromethyl)-4-methoxy-1H-benzimidazole] | 215 to 218 °C | < 100 nM
COc1cccc2c1nc(C(F)F)n2-c1nc(C2CCN(C(=O)CCl)CC2)nc(N2CCOCC2)n1 [Example 17, 1-[4-[1-(chloroacetyl)-4-piperidinyl]-6-(4-morpholinyl)-1,3,5-triazin-2-yl]-2-(difluoromethyl)-4-methoxy-1H-benzimidazole] | 241 to 243 °C | < 100 nM
COc1cccc2c1nc(C(F)F)n2-c1nc(NC2CCN(C(=O)CCl)CC2)nc(N2CCOCC2)n1 [Example 18, N-[1-(chloroacetyl)-4-piperidinyl]-4-[2-(difluoromethyl)-4-methoxy-1H-benzimidazol-1-yl]-6-(4-morpholinyl)-1,3,5-triazin-2-amine] | 270 to 273 °C | < 100 nM
COc1cccc2c1nc(C(F)F)n2-c1nc(N2CCOCC2)nc(N(C)C2CCN(C(=O)CCl)CC2)n1 [Example 19, N-[1-(chloroacetyl)-4-piperidinyl]-4-[2-(difluoromethyl)-4-methoxy-1H-benzimidazol-1-yl]-N-methyl-6-(4-morpholinyl)-1,3,5-triazin-2-amine] | 211 to 213 °C | < 100 nM
CN(C)CCCOc1cccc2c1nc(C(F)F)n2-c1nc(N2CCOCC2)nc(N(C)C2CCN(C(=O)CCl)CC2)n1 [Example 20, N-[1-(chloroacetyl)-4-piperidinyl]-4-{2-(difluoromethyl)-4-[3-(dimethylamino)propoxy]-1H-benzimidazol-1-yl}-N-methyl-6-(4-morpholinyl)-1,3,5-triazin-2-amine] | – | 100 to 1000 nM
CN(C)CCCOc1cccc2c1nc(C(F)F)n2-c1nc(N2CCOCC2)nc(N2CCC(N(C)C(=O)CCl)CC2)n1 [Example 24, 2-chloro-N-{1-[4-{2-(difluoromethyl)-4-[3-(dimethylamino)propoxy]-1H-benzimidazol-1-yl}-6-(4-morpholinyl)-1,3,5-triazin-2-yl]-4-piperidinyl}-N-methylacetamide] | – | 100 to 1000 nM
COc1cccc2c1nc(C(F)F)n2-c1nc(N2CCOCC2)nc(N2CC[C@H](NC(=O)CCl)C2)n1 [Example 26, 2-chloro-N-{(3S)-1-[4-[2-(difluoromethyl)-4-methoxy-1H-benzimidazol-1-yl]-6-(4-morpholinyl)-1,3,5-triazin-2-yl]pyrrolidinyl}acetamide] | – | < 100 nM
COc1cccc2c1nc(C(F)F)n2-c1nc(N2CCOCC2)nc(N2CCC[C@H](N(C)C(=O)CCl)C2)n1 [Example 36, 2-chloro-N-{(3S)-1-[4-[2-(difluoromethyl)-4-methoxy-1H-benzimidazol-1-yl]-6-(4-morpholinyl)-1,3,5-triazin-2-yl]piperidinyl}-N-methylacetamide] | – | < 100 nM
COc1cccc2c1nc(C(F)F)n2-c1nc(N[C@H]2CCCN(C(=O)CCl)C2)nc(N2CCOCC2)n1 [Example 38] | – | < 100 nM
CN(C)CCCOc1cccc2c1nc(C(F)F)n2-c1nc(OC2CCN(C(=O)CCl)CC2)nc(N2CCOCC2)n1 [Example 46, 3-{[1-[4-{[1-(chloroacetyl)-4-piperidinyl]oxy}-6-(4-morpholinyl)-1,3,5-triazin-2-yl]-2-(difluoromethyl)-1H-benzimidazol-4-yl]oxy}-N,N-dimethyl-1-propanamine] | – | 100 to 1000 nM
